Laboratory results published in ChEMBL document CHEMBL4602661, “Immunosuppressive Nor-isopimarane Diterpenes from Cultures of the Fungicolous Fungus Xylaria longipes HFG1018” (J Nat Prod, 2020).

Columns and labels:
[1] = Cytotoxicity against BALB/C mouse T lymphocytes assessed as cell viability at 40 uM after 8 to 10 hrs by CCK-8 assay relative to control; type: cell-based; conditions: read-out: Activity
[2] = Cytotoxicity against BALB/C mouse B lymphocytes assessed as cell viability at 40 uM after 8 to 10 hrs by CCK-8 assay relative to control; type: cell-based; conditions: read-out: Activity
B-cell line = assay: Immunosuppressive activity against BALB/C mouse B lymphocytes assessed as reduction in LPS-induced cell proliferation by measuring [3H]-thymidine uptake incubated for 8 hrs by Beta scintillation counting method; type: functional, cell-based
T-cell = assay: Immunosuppressive activity against BALB/C mouse T lymphocytes assessed as reduction in concanavalin A-induced cell proliferation by measuring [3H]-thymidine uptake incubated for 8 hrs by Beta scintillation counting method; type: functional, cell-based

With `CC1(O)CCC[C@]2(C)C3=C(C[C@@]4(C)CCO[C@@H]3C4)[C@@H](O)C[C@@H]12` (stereo partly drawn) the viability at 40 µM [1] was > 85% and the viability at 40 µM [2] was > 85%.
For `C=C1CC[C@H]2[C@@](C)(CO)CCC[C@]2(C)[C@H]1CC/C(C)=C/CO`, the IC50 (B-cell line) was 47.2 µM, the viability at 40 µM [1] was > 85% and the viability at 40 µM [2] was > 85%. It also gave an IC50 (T-cell) of 15.6 µM.
For `C[C@@]12CCO[C@@H]1C1=CC[C@H]3[C@](C)(O)[C@H](O)CC[C@]3(C)[C@H]1CC2`, the viability at 40 µM [1] was > 85% and the viability at 40 µM [2] was > 85%.
With `C[C@]1(CCO)CCC2=C(C1)C(=O)C[C@H]1[C@](C)(O)CCC[C@]21C` the viability at 40 µM [1] was > 85% and the viability at 40 µM [2] was > 85%.
For `C[C@]1(CCO)CC[C@H]2C(=CC[C@@H]3[C@]2(C)CCC[C@@]3(C)O)C1`, the IC50 (B-cell line) was 16.1 µM, the viability at 40 µM [1] was > 85% and the viability at 40 µM [2] was > 85%. It also gave an IC50 (T-cell) of 1 µM.
For `C[C@@]12CCO[C@@H]1C1=CC[C@H]3[C@](C)(CO)CCC[C@]3(C)[C@H]1CC2`, the viability at 40 µM [1] was > 85% and the viability at 40 µM [2] was > 85%.
For `C[C@@]12CCO[C@@H]1C1=CC[C@H]3[C@@](O)(CO)CCC[C@]3(C)[C@H]1CC2`, the IC50 (B-cell line) was 35.1 µM, the viability at 40 µM [1] was > 85% and the viability at 40 µM [2] was > 85%. For the same compound, the IC50 (T-cell) was 11.1 µM.
For `C[C@@]12CCO[C@@H]1C1=CC[C@@H]3[C@](C)(CCC[C@@]3(C)O)[C@H]1CC2`, the IC50 (B-cell line) was 40 µM, the viability at 40 µM [1] was > 85% and the viability at 40 µM [2] was > 85%. For the same compound, the IC50 (T-cell) was 27.2 µM.
For `C[C@@]12CCO[C@@H]1C1=CC[C@H]3[C@@](C)(O)[C@@H](O)CC[C@]3(C)[C@H]1CC2`, the viability at 40 µM [1] was > 85% and the viability at 40 µM [2] was > 85%.
With `C[C@@]12CCO[C@@H]1C1=CC[C@@H]3[C@](C)(CCC[C@]3(C)O)[C@H]1CC2` the IC50 (B-cell line) was 51.8 µM, the viability at 40 µM [1] was > 85% and the viability at 40 µM [2] was > 85%. It also gave an IC50 (T-cell) of 21.1 µM.
With `C[C@]12CC[C@H]3C(=CC[C@@H]4[C@]3(C)CCC[C@@]4(C)O)[C@H]1OC[C@@H]2O` the viability at 40 µM [1] was > 85% and the viability at 40 µM [2] was > 85%.
In the case of `C[C@@]12CCO[C@@H]1C1=CC[C@H]3[C@](C)(O)[C@@H](O)CC[C@]3(C)[C@H]1CC2`, the viability at 40 µM [1] is reported as > 85% and the viability at 40 µM [2] is reported as > 85%.
With `C[C@]12CCC[C@@](C)(O)[C@@H]1CC=C1[C@H]3OC[C@@H](O)[C@@]3(C)CC[C@@H]12` the IC50 (B-cell line) was 46 µM, the viability at 40 µM [1] was > 85% and the viability at 40 µM [2] was > 85%. The IC50 (T-cell) was 4 µM.
In the case of `C[C@@]12CCO[C@@H]1C1=C[C@@H](O)[C@@H]3[C@](C)(CCC[C@]3(C)O)[C@H]1CC2`, the IC50 (B-cell line) is reported as 49.4 µM, the viability at 40 µM [1] is reported as > 85% and the viability at 40 µM [2] is reported as > 85%. For the same compound, the IC50 (T-cell) was 14.9 µM.
In the case of `C[C@@]1(CCO)CC2=CC[C@@H]3[C@](C)(CCC[C@@]3(C)O)[C@H]2[C@H](O)C1`, the viability at 40 µM [1] is reported as > 85% and the viability at 40 µM [2] is reported as > 85%.
In the case of `C[C@@]12CCO[C@@H]1C1=CC[C@H]3[C@H](O)CCC[C@]3(C)[C@H]1CC2`, the viability at 40 µM [1] is reported as > 85% and the viability at 40 µM [2] is reported as > 85%.
For `C[C@]1(CCO)CC[C@H]2C(=CC[C@@H]3[C@]2(C)CCC[C@]3(C)O)C1`, the viability at 40 µM [1] was > 85% and the viability at 40 µM [2] was > 85%.
With `C[C@]1(CCO)CC[C@H]2C(=CC[C@H]3[C@H](O)CCC[C@]23C)C1` the viability at 40 µM [1] was > 85% and the viability at 40 µM [2] was > 85%.
For `C[C@@]12CCO[C@@H]1C1=CC[C@H]3[C@H](CO)CCC[C@]3(C)[C@H]1CC2`, the IC50 (B-cell line) was 38.2 µM, the viability at 40 µM [1] was > 85% and the viability at 40 µM [2] was > 85%. It also gave an IC50 (T-cell) of 6.6 µM.
With `C[C@]1(CCO)CC=C2C(=CC[C@H]3[C@](C)(O)CCC[C@]23C)C1` the viability at 40 µM [1] was > 85% and the viability at 40 µM [2] was > 85%.
With `C[C@@H]1C[C@H]2[C@@H]3CCC4=CC(=O)C=C[C@]4(C)[C@@]3(F)[C@@H](O)C[C@]2(C)[C@@]1(O)C(=O)CO` [DEXAMETHASONE] the IC50 (B-cell line) was 0.8 µM and the IC50 (T-cell) was 1.6 µM.
